Columns and labels:
[1] = molecular target: T1, DHP sites of rat cardiac ventricles (Rattus norvegicus, UniProt P22002); experiment: Anticalcium activity: affinity for the DHP sites of rat cardiac ventricles, displacement of (+)-[3H]-PN 200-110; format: binding; details: displacement of (+)-[3H]-PN 200-110, rat cardiac ventricle membranes, 30 minutes, 30° C.
T1 construct: membrane preparation of the receptors, this preparation being obtained after dissecting the ventricles; from tissue; host or cells: rat cardiac ventricles (membrane preparation)
T1 sequence (P22002 whole entry, other chains not shown): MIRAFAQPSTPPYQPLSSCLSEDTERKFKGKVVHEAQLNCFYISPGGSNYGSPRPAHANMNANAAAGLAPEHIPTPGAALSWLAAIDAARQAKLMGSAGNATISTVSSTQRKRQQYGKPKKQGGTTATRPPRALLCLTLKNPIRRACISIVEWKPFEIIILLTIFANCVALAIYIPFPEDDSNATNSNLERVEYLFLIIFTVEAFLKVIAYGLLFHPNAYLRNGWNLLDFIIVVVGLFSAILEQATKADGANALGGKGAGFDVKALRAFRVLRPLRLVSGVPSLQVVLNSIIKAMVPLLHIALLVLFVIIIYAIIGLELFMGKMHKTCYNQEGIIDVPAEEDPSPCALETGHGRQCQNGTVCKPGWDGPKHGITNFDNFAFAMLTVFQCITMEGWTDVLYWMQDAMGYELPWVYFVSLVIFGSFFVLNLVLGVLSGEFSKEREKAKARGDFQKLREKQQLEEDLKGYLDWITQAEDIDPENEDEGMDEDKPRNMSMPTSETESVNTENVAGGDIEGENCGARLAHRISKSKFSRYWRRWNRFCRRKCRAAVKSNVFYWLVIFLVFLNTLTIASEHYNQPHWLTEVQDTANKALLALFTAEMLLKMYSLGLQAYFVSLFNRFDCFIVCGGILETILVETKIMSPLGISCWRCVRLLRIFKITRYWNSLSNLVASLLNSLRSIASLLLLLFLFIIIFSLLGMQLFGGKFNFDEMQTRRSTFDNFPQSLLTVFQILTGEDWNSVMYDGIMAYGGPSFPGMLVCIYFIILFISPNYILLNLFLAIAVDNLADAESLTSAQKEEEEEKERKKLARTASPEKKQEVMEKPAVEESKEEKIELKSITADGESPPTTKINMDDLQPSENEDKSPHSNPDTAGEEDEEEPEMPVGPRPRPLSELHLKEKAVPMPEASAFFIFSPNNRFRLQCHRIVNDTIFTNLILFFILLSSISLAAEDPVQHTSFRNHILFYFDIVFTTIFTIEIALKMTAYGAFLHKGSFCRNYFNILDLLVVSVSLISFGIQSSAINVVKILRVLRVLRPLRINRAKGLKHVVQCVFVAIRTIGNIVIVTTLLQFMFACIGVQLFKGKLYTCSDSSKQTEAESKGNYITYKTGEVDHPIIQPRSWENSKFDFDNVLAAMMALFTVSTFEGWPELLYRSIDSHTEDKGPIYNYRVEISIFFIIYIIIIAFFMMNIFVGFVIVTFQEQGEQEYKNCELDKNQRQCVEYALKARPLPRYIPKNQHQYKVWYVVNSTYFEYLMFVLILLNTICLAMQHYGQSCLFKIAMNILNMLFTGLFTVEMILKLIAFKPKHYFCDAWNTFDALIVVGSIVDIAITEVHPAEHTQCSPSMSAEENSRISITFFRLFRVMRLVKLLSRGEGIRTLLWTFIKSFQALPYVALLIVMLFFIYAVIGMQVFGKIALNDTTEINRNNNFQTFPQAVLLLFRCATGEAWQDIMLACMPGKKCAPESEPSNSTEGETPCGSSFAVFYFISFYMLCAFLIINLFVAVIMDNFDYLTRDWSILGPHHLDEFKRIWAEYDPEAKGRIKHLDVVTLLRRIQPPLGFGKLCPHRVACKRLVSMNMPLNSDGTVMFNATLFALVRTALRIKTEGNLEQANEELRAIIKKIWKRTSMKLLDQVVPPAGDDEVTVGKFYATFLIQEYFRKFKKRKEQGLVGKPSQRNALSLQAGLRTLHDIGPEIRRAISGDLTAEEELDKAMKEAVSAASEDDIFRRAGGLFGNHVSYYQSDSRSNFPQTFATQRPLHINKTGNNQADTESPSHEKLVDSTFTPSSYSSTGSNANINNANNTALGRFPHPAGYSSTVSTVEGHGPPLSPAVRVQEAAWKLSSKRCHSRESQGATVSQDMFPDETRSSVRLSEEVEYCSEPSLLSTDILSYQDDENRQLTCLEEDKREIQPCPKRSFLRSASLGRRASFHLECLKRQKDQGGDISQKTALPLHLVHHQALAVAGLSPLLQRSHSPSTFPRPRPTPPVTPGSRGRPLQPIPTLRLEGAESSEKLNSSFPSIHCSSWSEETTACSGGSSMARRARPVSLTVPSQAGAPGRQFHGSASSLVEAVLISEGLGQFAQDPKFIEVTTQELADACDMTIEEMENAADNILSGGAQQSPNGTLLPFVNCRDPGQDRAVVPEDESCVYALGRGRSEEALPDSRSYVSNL
T1 sequence (P54290 25-944 partner limits assumed, other chains not shown): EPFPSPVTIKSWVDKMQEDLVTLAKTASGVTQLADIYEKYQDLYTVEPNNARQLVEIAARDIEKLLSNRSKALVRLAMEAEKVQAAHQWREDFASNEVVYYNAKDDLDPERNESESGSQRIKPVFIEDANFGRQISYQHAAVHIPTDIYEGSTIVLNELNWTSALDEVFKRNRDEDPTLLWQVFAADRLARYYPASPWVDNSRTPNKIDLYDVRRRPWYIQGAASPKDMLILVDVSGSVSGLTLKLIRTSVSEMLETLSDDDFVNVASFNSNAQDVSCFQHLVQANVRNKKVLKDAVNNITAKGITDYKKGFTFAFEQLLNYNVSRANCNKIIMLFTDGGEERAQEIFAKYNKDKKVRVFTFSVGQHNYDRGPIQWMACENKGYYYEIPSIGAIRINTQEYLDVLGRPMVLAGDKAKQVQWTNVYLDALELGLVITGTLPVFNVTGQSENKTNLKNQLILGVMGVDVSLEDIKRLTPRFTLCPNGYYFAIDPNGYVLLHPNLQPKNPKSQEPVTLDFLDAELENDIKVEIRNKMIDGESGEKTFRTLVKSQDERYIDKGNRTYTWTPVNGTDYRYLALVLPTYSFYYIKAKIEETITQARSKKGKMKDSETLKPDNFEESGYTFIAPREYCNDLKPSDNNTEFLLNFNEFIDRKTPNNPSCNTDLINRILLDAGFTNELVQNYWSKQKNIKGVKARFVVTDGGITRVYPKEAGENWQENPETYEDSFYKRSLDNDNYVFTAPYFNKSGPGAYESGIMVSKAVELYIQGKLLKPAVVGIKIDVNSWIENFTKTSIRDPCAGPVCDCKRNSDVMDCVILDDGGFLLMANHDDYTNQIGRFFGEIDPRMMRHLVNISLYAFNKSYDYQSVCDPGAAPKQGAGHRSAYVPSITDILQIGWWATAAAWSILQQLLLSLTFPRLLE
T1 sequence (P54290 945-1091 partner limits assumed, other chains not shown): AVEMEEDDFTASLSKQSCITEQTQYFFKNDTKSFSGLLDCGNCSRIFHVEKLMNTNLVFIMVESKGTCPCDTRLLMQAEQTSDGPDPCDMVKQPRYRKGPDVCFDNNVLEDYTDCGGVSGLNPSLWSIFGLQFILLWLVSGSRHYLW
Procedure: 1) Anticalcium activity by measuring the affinity for the DHP sites of rat cardiac ventricles
These membrane preparations are placed in contact with the specific radioactive ligand (+)-[^3 H]-PN 200-110 and the test compound, at different concentrations. The suspension is stirred for 30 minutes at a temperature of 30° C. The reaction is then stopped by filtration using a Harvester-type system. The filter is introduced into a counting flask containing scintillation liquid. The radioactivity present on each filter is then measured by counting in a β-counter with liquid scintillation.
The intensity of the binding to the membrane receptors is defined by the (molar) concentration of the test compound which is needed to displace 50% of the amount of the specific ligand (+)-[^3 H]-PN 200-110 prebound to the DHP sites. This concentration is the IC50 concentration.

anaesthetized dogs = experiment: Therapeutic index: minimum arrhythmogenic dose / dose active on the coronary output, anaesthetized dogs; format: in vivo, dog; set-up: minimum arrhythmogenic dose: unit: µg/kg; details: for ED (50% increase): Canis lupus familiaris, iv, read-out: dose which is active on the coronary output (increases the basal coronary output by 50%); for minimum arrhythmogenic dose: anaesthetized dogs, intravenous route
From the text: (§1) 5) Therapeutic index The therapeutic index is defined as being the ratio between the minimum arrhythmogenic dose and the dose which increases the basal coronary output by 50% (this dose is referred to hereinbelow as the "dose which is active on the coronary output").

[2] = as above; format: in vivo, dog; set-up: minimum arrhythmogenic dose: unit: µg/kg; details: dog, in vivo; ratio, anaesthetized dogs, intravenous route; read-out: Arrhythmogenic dose/dose which is active on the coronary output (therapeutic index)
From the text: as §1

isolated rat aorta = experiment: Anticalcium activity: antagonism of KCl-mediated contraction of isolated rat aorta; details: KCl 5×10^-2 M.l^-1 contraction, isolated rat thoracic aorta ring
Procedure: 2) Anticalcium activity by measuring the KCl-mediated antagonism of the contraction of isolated rat aorta
The technique employed uses a ring of arterial vascular tissue taken from rat thoracic aorta and then kept alive in aerated bicarbonated Krebs buffer, and subjected to an initial tension of 2 g. The introduction of potassium chloride KCl (in a volume of 300 μl) at a concentration 5×10^-2 M.l^-1 into the Krebs buffer bath generates a sustained contraction whose amplitude (isometric tension) is antagonized by the addition of a solution of the test compound of increasing concentrations, each addition being made every 5 minutes. The molar concentration of the test compound which reduces by 50% the maximum contraction observed in KCl is then calculated. This concentration is the 50% inhibitory concentration (or IC50).

[3] = system: conscious, spontaneously hypertensive rats; experiment: Hypotensive effect in conscious, spontaneously hypertensive rats; format: in vivo, rat; details: gastric route
Procedure: 3) Hypotensive effect in conscious, spontaneously hypertensive rats
The animals receive increasing doses of compound every 90 minutes via the gastric route.
The hypotensive effect is evaluated by means of the percentage of maximum reduction of the average arterial pressure after administration of each dose.

[4] = system: coronary output of anaesthetized dogs; experiment: Effect on the coronary output of anaesthetized dogs; format: in vivo, dog; details: intravenous
Procedure: 4) Effect on the coronary output of anaesthetized dogs
The animals receive increasing doses of compound every 30 minutes via the intravenous route. The effect on the coronary output is evaluated by means of its percentage of maximum variation after each dose.

[5] = dose +10 mg/kg, increasing doses every 90 minutes
[6] = dose +30 mg/kg, increasing doses every 90 minutes
[7] = dose +10 μg/kg, increasing doses every 30 minutes
[8] = dose +20 μg/kg, increasing doses every 30 minutes
[9] = dose +40 μg/kg, increasing doses every 30 minutes
[10] = dose +80 μg/kg, increasing doses every 30 minutes
[11] = dose +160 μg/kg, increasing doses every 30 minutes
[12] = dose +320 μg/kg, increasing doses every 30 minutes

| SMILES | IC50 [1] | ED (50% increase) (anaesthetized dogs) | minimum arrhythmogenic dose (anaesthetized dogs) | selectivity ratio [2] | IC50 (isolated rat aorta) | percentage of maximum reduction of the average arterial pressure ([3]; dose 3 mg/kg) | percentage of maximum reduction of the average arterial pressure [3, 5] | percentage of maximum reduction of the average arterial pressure [3, 6] | percentage of maximum variation of the coronary output ([4]; dose 5 μg/kg) | percentage of maximum variation of the coronary output [4, 7] | percentage of maximum variation of the coronary output [4, 8] | percentage of maximum variation of the coronary output [4, 9] | percentage of maximum variation of the coronary output [4, 10] | percentage of maximum variation of the coronary output [4, 11] | percentage of maximum variation of the coronary output [4, 12] |
| --- | --- | --- | --- | --- | --- | --- | --- | --- | --- | --- | --- | --- | --- | --- | --- |
| COC(=O)C1=C(C)NC(C)=C(C(=O)O[C@@H]2CCCN(CCCCC(=O)c3cccs3)C2)[C@H]1c1cccc([N+](=O)[O-])c1 [Example 1, (4S,3'R)(-)N-[4-(2-thienoyl)-butyl]piperid-3'-yl 2,6-dimethyl-4-(3-nitrophenyl)-5-methoxycarbonyl-1,4-dihydropyridine-3-carboxylate] | 0.015 µM | 0.02 mg/kg | 640 | 32 | 0.13 µM | 0% | -22% | -45% | 12% | +28% | +56% | +72% | +81% | +67% | +64% |
| COC(=O)C1=C(C)NC(C)=C(C(=O)O[C@@H]2CCN(CCCCC(=O)c3c(OC)cc(OC)cc3OC)C2)[C@H]1c1cccc([N+](=O)[O-])c1 [Example 2, (4S,3'R)(-)N-[4-(2,4,6-trimethoxybenzoyl)butyl]pyrrolidin-3'-yl 2,6-dimethyl-4-(3-nitrophenyl)-5-methoxycarbonyl-1,4-dihydropyridine-3-carboxylate] | 0.0078 µM | 0.04 mg/kg | 640 | 16 | – | – | – | – | +16% | +14% | +34% | +78% | +68% | +59% | +33% |
| COC(=O)C1=C(C)NC(C)=C(C(=O)O[C@@H]2CCCN(CCCCC(=O)c3ccc[nH]3)C2)[C@H]1c1cccc([N+](=O)[O-])c1 [Example 3, (4S,3'R)(-)N-[5-(1H-pyrrol-2-yl)-5-oxopentyl]piperid-3'-yl 2,6-dimethyl-4-(3-nitrophenyl)-5-methoxycarbonyl-1,4-dihydropyridine-3-caroxylate] | – | 0.02 mg/kg | 640 | 32 | 0.16 µM | -12% | -21% | -54% | +7% | +30% | +59% | +76% | +84% | +84% | +59% |
| COC(=O)C1=C(C)NC(C)=C(C(=O)O[C@@H]2CCCN(CCCC(=O)c3cccs3)C2)[C@H]1c1cccc([N+](=O)[O-])c1 [Example A, reference compound] | – | 0.64 mg/kg | 640 | 1 | – | – | – | – | – | – | – | – | – | – | – |
| COC(=O)C1=C(C)NC(C)=C(C(=O)O[C@@H]2CCN(CCCC(=O)c3c(OC)cc(OC)cc3OC)C2)[C@H]1c1cccc([N+](=O)[O-])c1 [Example B, reference compound] | – | 0.64 mg/kg | 640 | 1 | – | – | – | – | – | – | – | – | – | – | – |
